Experimental data published in ChEMBL document CHEMBL3259709, “Quinoline Derivatives as 5-HT6 Receptor PET Ligands” (ACS Med Chem Lett, 2014).
Each block holds one molecule with its values, some of them ahead of it.

What was measured:
Nucleic Acid [1] = assay: Ratio of drug level from striatum to cerebellum in rat brain at 0.05 mg/kg, iv after 40 mins; assay type: ADME, organism-based; parameters: dose 0.05 mg/kg, route intravenous; conditions: in vivo
Nucleic Acid [2] = assay: Ratio of drug level from cortex to cerebellum in rat at 0.05 mg/kg, iv after 40 mins; assay type: ADME, organism-based; parameters: dose 0.05 mg/kg, route intravenous; conditions: in vivo
Nucleic Acid [3] = assay: Ratio of drug level from striatum to cerebellum in rat brain at 0.05 mg/kg, iv after 5 mins; assay type: ADME, organism-based; parameters: dose 0.05 mg/kg, route intravenous; conditions: in vivo
Nucleic Acid [4] = assay: Ratio of drug level from hippocampus to cerebellum in rat at 0.05 mg/kg, iv after 5 mins; assay type: ADME, organism-based; parameters: dose 0.05 mg/kg, route intravenous; conditions: in vivo
Nucleic Acid [5] = assay: Ratio of drug level from cortex to cerebellum in rat at 0.05 mg/kg, iv after 5 mins; assay type: ADME, organism-based; parameters: dose 0.05 mg/kg, route intravenous; conditions: in vivo
Nucleic Acid [6] = assay: Ratio of drug level from hippocampus to cerebellum in rat at 0.05 mg/kg, iv after 40 mins; assay type: ADME, organism-based; parameters: dose 0.05 mg/kg, route intravenous; conditions: in vivo
[7] = Ratio of free drug level from brain to plasma concentration in rat at 0.05 mg/kg, iv after 5 mins; assay type: ADME, organism-based; parameters: dose 0.05 mg/kg, route intravenous; conditions: read-out: BPR
[8] = Plasma concentration in rat at 0.05 mg/kg, iv after 3 mins; assay type: ADME, organism-based; parameters: dose 0.05 mg/kg, route intravenous
[9] = Ratio of free drug level from brain to plasma concentration in rat at 0.05 mg/kg, iv after 3 mins; assay type: ADME, organism-based; parameters: dose 0.05 mg/kg, route intravenous; conditions: read-out: BPR
[10] = Plasma concentration in rat at 0.05 mg/kg, iv after 5 mins; assay type: ADME, organism-based; parameters: dose 0.05 mg/kg, route intravenous
[11] = target: 5-hydroxytryptamine receptor 2A (Homo sapiens, UniProt P28223); assay: Displacement of [125I]-R-O-DOI from human 5-HT2A receptor expressed in CHO-K1 cells by liquid scintillation spectrometry; assay type: cell-based
5-hydroxytryptamine receptor 2A, sequence (P28223 whole entry): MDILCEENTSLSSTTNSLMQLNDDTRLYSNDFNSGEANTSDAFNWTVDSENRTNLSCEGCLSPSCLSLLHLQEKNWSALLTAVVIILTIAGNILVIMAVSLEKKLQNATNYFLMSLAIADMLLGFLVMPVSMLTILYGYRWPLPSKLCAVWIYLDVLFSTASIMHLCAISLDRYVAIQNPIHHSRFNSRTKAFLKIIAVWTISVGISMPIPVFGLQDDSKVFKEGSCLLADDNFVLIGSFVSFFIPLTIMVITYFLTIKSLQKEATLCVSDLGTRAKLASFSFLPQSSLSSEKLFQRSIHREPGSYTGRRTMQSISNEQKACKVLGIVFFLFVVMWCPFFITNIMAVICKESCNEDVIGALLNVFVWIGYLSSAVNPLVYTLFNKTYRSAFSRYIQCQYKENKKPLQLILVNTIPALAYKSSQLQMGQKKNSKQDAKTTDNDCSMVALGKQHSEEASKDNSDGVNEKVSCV

Ratio (Nucleic Acid [1]): 1.31
Ratio (Nucleic Acid [2]): 1.2
Ratio (Nucleic Acid [3]): 0.81
Ratio (Nucleic Acid [4]): 1.06
Ratio (Nucleic Acid [5]): 0.9
Ratio (Nucleic Acid [6]): 1.07
Structure (SMILES): [3H]C([3H])([3H])N1CCC(c2cccc3cc(S(=O)(=O)c4ccccn4)cnc23)CC1

Kp uu at 5 min [7]: 0.28
concentration at 0.05 h [8]: 104 ng/mL
Kp uu at 0.05 h [9]: 0.21
concentration at 5 min [10]: 83.5 ng/mL
Structure (SMILES): CN1CCC(c2cccc3cc(S(=O)(=O)c4ccccn4)cnc23)CC1

Ki [11]: 0.39 nM
Structure (SMILES): CN1CCN(c2cccc3cc(S(=O)(=O)c4cccc(F)c4)cnc23)CC1
